# From patent US20090285820A1, “Methods of Treating Degenerative Disorders With Rac 1B Inhibitor” (priority 2006, published 2009)
# Key:
# Type in all cases: cell-based
# [1] = tested on: rac1b mRNA in rat primary cortical cells; assay: Induction of rac1b splicing by Abeta, nested PCR of rac1b mRNA; conditions: rat cortical cells exposed to Abeta for 24 hours; observed at 11.25 and 22.5 μM; two independent cultures
# Method: Rat primary cortical cell cultures are sensitive to Abeta toxicity, the neurotoxicity of which involves different mechanisms such as calcium homeostasis dysregulation, accumulation of ROS, secondary excitotoxicity and caspase activation (Zhang et al, J Neurochem 1996, 67 (4) 1595-1606). Abeta peptide is dissolved in 100% HFIP (1,1,1,3,3,3-hexafluoro-2-propanol), then dryed out and resuspended in 100% DMSO and rediluted in DMEM/F12 without phenol red. The solution maturates by incubation at 37° C. during 72 h and Aβ oligomers are then added on 7 days cultures for 24 h. After 24 h incubation, cells were processed for RNA extraction using Trizol. A nested PCR approach was used for the amplification rac1b using the following primers: nm—006908_F1: […] (SEQ ID NO 9), nm—006908_R1: TGGCATTGAGTGCGAAGGC (SEQ ID NO 10), nm—006908_F2: AAAGACAAGCCGATTGCCG (SEQ ID NO 11). Rac1 was amplified following the first PCR of the protocol described below using primers nm—006908_F1 and nm—006908_R1. In these conditions, rac1b was not detected on gel due to its low quantity after single PCR amplification and was easily detected using primers nm—006908_F2 and nm—006908_R1 in the nested PCR. […]
# [2] = tested on: rac1b mRNA in SH-SY5Y cells; assay: Induction of rac1b splicing by oxidative stress, nested PCR of rac1b; conditions: 24 hours, subtoxic concentrations
# Method: (§1) To test whether ROS production may affect the rac1/rac1b ratio SH-SY5Y cells were exposed to various ROS-inducing agents at the indicated concentrations for 24 hours and cell viability was determined using a LDH assay (Cytotox96, Promega).
# (§2) SH-SY5Y cells were plated in 24 well plates (ATGC, France) at the initial density of 3*10^5 cells/well. After 24 hours, cells were treated with various ROS-inducing agents at the indicated concentrations. After 24 h incubation, a LDH assay was conducted to reveal cell viability and cells were processed for RNA extraction using Trizol.
# (§3) To test the effect of ROS producing agents TBH and 6-OHDA on mRNA levels of rac1 and rac1b, SH-SY5Y cells were exposed to various ROS-inducing agents at the indicated concentrations for 24 hours and rac1 and rac1b were either coamplified using primers nm—006908_F1 and nm—006908_R1, or rac1b was specifically amplified in a nested PCR approach that sequentially used primers nm—006908_F1 and nm—006908_R1, then primers nm—006908_F2 and nm—006908_R1. GAPDH was amplified as control.
# [3] = tested on: rac1 mRNA in SH-SY5Y cells; assay: Effect of oxidative stress on rac1 levels, PCR of rac1; conditions: 24 hours
# Method: as §1, §2, §3
Compound,mRNA levels of rac1b [1],mRNA levels of rac1b [2],mRNA levels of rac1 [3]
"Abeta: fragment of Abeta42 containing the aminoacids 25 to 35 that reproduces the toxic mechanisms of Aβ42 (GSNKGAIIGLM; Amyloid-beta protein 42; UniProt P05067 696-706, looked up, fragment)",dose dependent accumulation of rac1b mRNA,,
"NCCc1cc(O)c(O)cc1O [6-OHDA, 6-hydroxydopamine]",,dose dependent accumulation of rac1b,rac1 levels are not altered
"CC(C)(C)OO [TBH, t-butyl hydroperoxide]",,dose dependent accumulation of rac1b,rac1 levels are not altered
